# Laboratory results from US9296728B2, “Therapeutic compounds” (Regents of the University of Minnesota, priority 2012, dated 2016).
# Where “and” joins values, the source holds several entries; their conditions need not be identical. Identical values can stand only once. Like-named read-outs stand apart in the source and are kept apart here.
# Test: Pharmacokinetic study of Compound 20 in ICR mice
# Format: in vivo
# Details: for CLz/F / t1/2Z: mean
# Description: 60 male ICR mice were split into two groups of 30. In each group the mice were prescribed Compound 20 at a dosage of 100 mg/kg. This dose was administered orally in group 1 and intraperitoneally in group 2. Each group of 30 mice was subdivided into groups of 3 mice. Blood samples were taken through orbital sinus method at 0, 0.083, 0.25, 0.5, 1, 2, 4, 6, 8 and 24 hours after administering Compound 20 and taken into tubes with anticoagulant at room temperature at least 30 minutes prior to centrifugation, then centrifuged at 10000 rpm for 5 minutes at 4° C. to separate plasma from the blood samples. Following centrifugation, the resulting serum was transferred to clean tubes and stored frozen at −80° C. Immediately following the blood samples, the brain tissue samples of mice were removed and stored frozen at −80° C.
# A 20% brain homogenate was prepared by weighing brain tissue sample and adding, corresponding volume of saline into the manual homogenator. The dilution factor was 5 (w/v=1 g: 4 mL). The brain tissue sample was grinded slowly and repeatedly until it has become homogenous.
# Plasma and Brain samples were centrifuged at 15777×g for 5 minutes, and 180 ul of supernatant was placed in a 96-well assay plate. To each well, 200 ul of a 50% ACN/H2O was added and the plates were shake-mixed for 3 minutes. 5 ul aliquots of each well were then analyzed using LC-MS/MS.
# The standard non-compartmental model was used to generate the pharmacokinetic parameters: Cmax, Tmax, t1/2, AUC0->last, AUC0->inf, CL/F, and Vz/F. The maximum plasma concentration, Cmax, and its corresponding time, Tmax were directly recorded. Elimination rate constant kel was determined by linear regression of the terminal points of the semi-log plot of concentration against time. Elimination half-life was calculated by the formula; t12=0.693/kel. The Area Under the curve value from time 0 to 24 hours was defined as AUCt->last and calculated using the linear trapezoidal rule.
smiles,measurement,setting,value
COc1cc(N(c2ccccc2)c2ccccc2)ccc1/C=C(\C#N)C(=O)O [Compound 20],"Plasma Concentration, individual animals (1#, 2#, 3#)","100 mg/kg i.p., 0 h",0 ng/mL
same,"Plasma Concentration, individual animals (1#, 2#, 3#)","100 mg/kg i.p., 0.083 h",18800 ng/mL and 33300 ng/mL and 40400 ng/mL
same,"Plasma Concentration, individual animals (1#, 2#, 3#)","100 mg/kg i.p., 0.25 h",78300 ng/mL and 29400 ng/mL and 60100 ng/mL
same,"Plasma Concentration, individual animals (1#, 2#, 3#)","100 mg/kg i.p., 0.5 h",30400 ng/mL and 30200 ng/mL
same,"Plasma Concentration, individual animals (1#, 2#, 3#)","100 mg/kg i.p., 1 h",45600 ng/mL and 26900 ng/mL
same,"Plasma Concentration, individual animals (1#, 2#, 3#)","100 mg/kg i.p., 2 h",27800 ng/mL and 38900 ng/mL
same,"Plasma Concentration, individual animals (1#, 2#, 3#)","100 mg/kg i.p., 4 h",24000 ng/mL and 26400 ng/mL
same,"Plasma Concentration, individual animals (1#, 2#, 3#)","100 mg/kg i.p., 6 h",14200 ng/mL and 3980 ng/mL and 5360 ng/mL
same,"Plasma Concentration, individual animals (1#, 2#, 3#)","100 mg/kg i.p., 8 h",3160 ng/mL and 2590 ng/mL
same,"Plasma Concentration, individual animals (1#, 2#, 3#)","100 mg/kg i.p., 24 h",41.8 ng/mL and 249 ng/mL and 70.9 ng/mL
same,CLz/F,"100 mg/kg i.p., plasma",8.32 mL/min/kg
same,t1/2Z,"100 mg/kg i.p., plasma",3.19 h
same,pharmacokinetics parameters (overall assessment),100 mg/kg p.o. and i.p.,satisfactory
same,"Plasma Concentration, individual animals (1#, 2#, 3#)","100 mg/kg p.o., 0 h",0 ng/mL
same,"Plasma Concentration, individual animals (1#, 2#, 3#)","100 mg/kg p.o., 0.083 h",4050 ng/mL and 4040 ng/mL
same,"Plasma Concentration, individual animals (1#, 2#, 3#)","100 mg/kg p.o., 0.25 h",11300 ng/mL and 6400 ng/mL
same,"Plasma Concentration, individual animals (1#, 2#, 3#)","100 mg/kg p.o., 0.5 h",19100 ng/mL and 20700 ng/mL and 6580 ng/mL
same,"Plasma Concentration, individual animals (1#, 2#, 3#)","100 mg/kg p.o., 1 h",3610 ng/mL and 4830 ng/mL and 12700 ng/mL
same,"Plasma Concentration, individual animals (1#, 2#, 3#)","100 mg/kg p.o., 2 h",3270 ng/mL and 1380 ng/mL and 4790 ng/mL
same,"Plasma Concentration, individual animals (1#, 2#, 3#)","100 mg/kg p.o., 4 h",2880 ng/mL and 5160 ng/mL and 1240 ng/mL
same,"Plasma Concentration, individual animals (1#, 2#, 3#)","100 mg/kg p.o., 6 h",1470 ng/mL and 2230 ng/mL and 3720 ng/mL
same,"Plasma Concentration, individual animals (1#, 2#, 3#)","100 mg/kg p.o., 8 h",5780 ng/mL and 2370 ng/mL and 3880 ng/mL
same,"Plasma Concentration, individual animals (1#, 2#, 3#)","100 mg/kg p.o., 24 h",111 ng/mL and 19.3 ng/mL and 12.8 ng/mL
same,CLz/F,"100 mg/kg p.o., plasma",26 mL/min/kg
same,t1/2Z,"100 mg/kg p.o., plasma",3.03 h
same,concentration at 0 h,"male, ICR, mouse, plasma, ip, 100 mg/kg, 100 mg/kg i.p., 0 h, n = 3, read-out: Plasma Concentration, Mean",0 ng/mL
same,concentration at 0 h,"male, ICR, mouse, plasma, ip, 100 mg/kg, 100 mg/kg i.p., 0 h, read-out: Plasma Concentration, individual animals (1#, 2#, 3#)",0 ng/mL
same,concentration at 0.083 h,"male, ICR, mouse, plasma, ip, 100 mg/kg, 100 mg/kg i.p., 0.083 h, n = 3, read-out: Plasma Concentration, Mean",30800 ng/mL
same,concentration at 0.25 h,"male, ICR, mouse, plasma, ip, 100 mg/kg, 100 mg/kg i.p., 0.25 h, n = 3, read-out: Plasma Concentration, Mean",55900 ng/mL
same,concentration at 0.5 h,"male, ICR, mouse, plasma, ip, 100 mg/kg, 100 mg/kg i.p., 0.5 h, n = 3, read-out: Plasma Concentration, Mean",37300 ng/mL
same,concentration at 0.5 h,"male, ICR, mouse, plasma, ip, 100 mg/kg, 100 mg/kg i.p., 0.5 h, read-out: Plasma Concentration, individual animals (1#, 2#, 3#)",51400 ng/mL
same,concentration at 1 h,"male, ICR, mouse, plasma, ip, 100 mg/kg, 100 mg/kg i.p., 1 h, n = 3, read-out: Plasma Concentration, Mean",34800 ng/mL
same,concentration at 1 h,"male, ICR, mouse, plasma, ip, 100 mg/kg, 100 mg/kg i.p., 1 h, read-out: Plasma Concentration, individual animals (1#, 2#, 3#)",31800 ng/mL
same,concentration at 2 h,"male, ICR, mouse, plasma, ip, 100 mg/kg, 100 mg/kg i.p., 2 h, n = 3, read-out: Plasma Concentration, Mean",35200 ng/mL
